Source: patent publication US7875586B2 (priority 2002, dated 2011)
“Also recorded” adds a separate entry of the source. Peptide text beside a SMILES is read from it. * marks the point of attachment. Cbz = O=C(OCc1ccccc1)*; CH2F = FC*

Columns and labels:
Assay type in all cases: cell-based, human
[1] = tested on: Caco-2 cells
[2] = tested on: Caco-2 cells; remark: listed apart in the source
[3] = tested on: T-84 cells
[4] = tested on: living Caco-2 cells

Q: Which “Effect of caspase inhibition on DNA fragmentation caused by Stx1B” value [1] does the source give for `COC(=O)C[C@H](NC(=O)[C@H](C)NC(=O)[C@@H](NC(=O)OCc1ccccc1)C(C)C)C(=O)CF` [z-VAD-fink] (Cbz-Val-Ala-Asp(OMe)-CH2F) here?
A: decreased DNA fragmentation; also recorded: Inhibition of apoptotic DNA fragmentation

Q: For `CCCCCCCCCCCCCCCC(=O)NC(CN1CCOCC1)C(O)c1ccccc1` (stereo not drawn) [PPMP, threo-1-phenyl-2-palmitoylamino-3-morpholino-1-propanol], which “Subpopulation of Gb3 enriched cells with filopodia on the leading edge” value [2] is on record?
A: completely eliminated

Q: And the “Subpopulation of Gb3 enriched cells with filopodia on the leading edge” value [3]?
A: completely eliminated

Q: `C[C@@H](N)[C@H]1CC[C@H](C(=O)Nc2ccncc2)CC1` [Y-27632] was tested. Which Cell morphology [4] did it give?
A: pronounced effects

Q: What about the “Filopodia and filopodia-mediated cell-cell contacts” value [4] of the same compound?
A: did not change
